Measured values from patent US20230203004A1, “RSV INHIBITING 3-SUBSTITUTED QUINOLINE AND CINNOLINE DERIVATIVES” (Janssen Sciences Ireland Unlimited Company, priority 2020, published 2023).

Legend:
[1] = Cytotoxicity in HeLa cells (ATP content, ATPlite kit); format: cell-based; conditions: human, TOX HELA CC50
Description: (§1) Black 384-well clear-bottom microtiter plates (Corning, Amsterdam, The Netherlands) were filled via acoustic drop ejection using the echo liquid handler (Labcyte, Sunnyvale, California). 200 nL of compound stock solutions (100% DMSO) were transferred to the assay plates. 9 serial 4-fold dilutions of compound were made, creating per quadrant the same compound concentration. The assay was initiated by adding 10 µL of culture medium to each well (RPMI medium without phenol red, 10% FBS-heat inactivated, 0.04% gentamycin (50 mg/mL). All addition steps are done by using a multidrop dispenser (Thermo Scientific, Erembodegem, Belgium). Next, rgRSV224 virus (MOI = 1) diluted in culture medium was added to the plates. rgRSV224 virus is an engineered virus that includes an additional GFP gene (Hallak LK, Spillmann D, Collins PL, Peeples ME. Glycosaminoglycan sulfation requirements for respiratory syncytial virus infection; Journal of virology (2000), 74(22), 10508-13) and was in-licensed from the NIH (Bethesda, MD, USA). Finally, 20 µL of a HeLa cell suspension (3,000 cells/well) were plated. Medium, virus- and mock-infected controls were included in each test. The wells contain […] DMSO per volume. Cells were incubated at 37° C. in a 5% CO2 atmosphere. Three days post-virus exposure, viral replication was quantified by measuring GFP expression in the cells by an in house developed MSM laser microscope (Tibotec, Beerse, Belgium). The EC50 was defined as the 50% inhibitory concentration for GFP expression. In parallel, compounds were incubated for three days in a set of white 384-well microtiter plates (Corning) and the cytotoxicity of compounds in HeLa cells was determined by measuring the ATP content of the cells using the ATPlite kit (Perkin Elmer, Zaventem, Belgium) according to the manufacturer’s instructions. The CC50 was defined as the 50% concentration for cytotoxicity.

rgRSV224 virus = assay: Antiviral activity: rgRSV224 (GFP) replication in HeLa cells; format: cell-based, respiratory syncytial virus (RSV); conditions: human respiratory syncytial virus, HeLa, 72 h, read-out: RSV HELA EC50, HeLa cells, rgRSV224 MOI = 1, GFP expression three days post-virus exposure; averaged data of several repeat experiments
Description: as §1

| SMILES | CC50 at 3 days [1] [µM] | EC50 (rgRSV224 virus) [nM] |
| --- | --- | --- |
| COc1cc(C(=O)NC[C@](O)(c2cc(C(C)(C)O)c(Cl)c(-c3ccc(F)cc3)n2)C(F)(F)F)cc2cc(C)c(F)nc12 [compound 210, (-)-N-{2-[5-Chloro-6-(4-Fluorophenyl)-4-(2-Hydroxypropan-2-yl)Pyridin-2-yl]-3,3,3-Trifluoro-2-Hydroxypropyl}-2-Fluoro-8-Methoxy-3-Methylquinoline-6-Carboxamide] | 23 | 2.9 |
| COc1cc(C(=O)NC[C@](O)(c2nc(-c3ccc(F)cc3)c(F)c(C(C)(C)O)c2F)C(F)(F)F)cc2cc(C)c(F)nc12 [compound 211, (-)-N-{2-[3,5-Difluoro-6-(4-Fluorophenyl)-4-(2-Hydroxypropan-2-yl)Pyridin-2-yl]-3,3,3-Trifluoro-2-Hydroxypropyl}-2-Fluoro-8-Methoxy-3-Methylquinoline-6-Carboxamide] | 29 | 2.8 |
| COc1cc(C(=O)NC[C@](O)(c2nc(-c3ccc(F)cc3)c(Cl)c(C(C)(C)O)c2F)C(F)(F)F)cc2cc(C)c(F)nc12 [compound 212, (-)-N-{2-[5-Chloro-3-Fluoro-6-(4-Fluorophenyl)-4-(2-Hydroxypropan-2-yl)Pyridin-2-yl]-3,3,3-Trifluoro-2-Hydroxypropyl}-2-Fluoro-8-Methoxy-3-Methylquinoline-6-Carboxamide] | 58 | 7.1 |
| COc1cc(C(=O)NC[C@](O)(c2cc(C(C)(C)O)c(Cl)c(-c3ccc(F)cc3)n2)C2CC2)cc2cc(C)c(F)nc12 [compound 215] | 20 | 0.87 |
| COc1cc(C(=O)NC[C@](O)(c2cc(C(C)(C)O)c(F)c(-c3ccc(F)cc3)n2)C2CC2)cc2cc(C)c(F)nc12 [compound 216, (-)-N-{2-Cyclopropyl-2-[5-Fluoro-6-(4-Fluorophenyl)-4-(2-Hydroxypropan-2-yl)Pyridin-2-yl]-2-Hydroxyethyl}-2-Fluoro-8-Methoxy-3-Methylquinoline-6-Carboxamide] | 21 | 0.62 |
| COc1cc(C(=O)NC[C@](O)(c2cc(C(C)(C)O)c(F)c(-c3ccc(C(F)(F)F)cc3)n2)C2CC2)cc2cc(C)c(F)nc12 [compound 217, N-[(-)Cyclopropyl{5-Fluoro-4-(2-Hydroxypropanyl)-6-[4-(Trifluoromethyl)Phenyl]-Pyridinyl}Hydroxyethyl]Fluoro-8-Methoxy-3-Methylquinoline-6-Carboxamide] | 14 | 1.3 |
| COc1cc(C(=O)NC[C@](O)(c2cc(C(C)(C)O)c(F)c(-c3ccc(F)c(F)c3)n2)C2CC2)cc2cc(C)c(F)nc12 [compound 218, (-)-N-{2-Cyclopropyl-2-[6-(3,4-Difluorophenyl)-5-Fluoro-4-(2-Hydroxypropan-2-yl)Pyridin-2-yl]-2-Hydroxyethyl}-2-Fluoro-8-Methoxy-3-Methylquinoline-6-Carboxamide] | 16 | 1.2 |
| Cc1cnc2c(OC3CC3)cc(C(=O)NC[C@](O)(c3cc(C(C)(C)O)c(Cl)c(-c4ccc(F)cc4)n3)C(F)(F)F)cc2c1 [compound 219, (-)-N-{2-[5-Chloro-6-(4-Fluorophenyl)-4-(2-Hydroxypropan-2-yl)Pyridin-2-yl]-3,3,3-Trifluoro-2-Hydroxypropyl}-8-(Cyclopropyloxy)-3-Methylquinoline-6-Carboxamide] | 27 | 5 |
| Cc1cnc2c(OC3CC3)cc(C(=O)NC[C@](O)(c3nc(-c4ccc(F)cc4)c(F)c(C(C)(C)O)c3F)C(F)(F)F)cc2c1 [compound 220, (-)(Cyclopropyloxy)-N-{2-[3,5-Difluoro-6-(4-Fluorophenyl)-4-(2-Hydroxypropan-2-yl)Pyridin-2-yl]-3,3,3-Trifluoro-2-Hydroxypropyl}-3-Methylquinoline-6-Carboxamide] | 36 | 2.4 |
| Cc1cnc2c(OC3CC3)cc(C(=O)NC[C@](O)(c3nc(-c4ccc(F)cc4)c(Cl)c(C(C)(C)O)c3F)C(F)(F)F)cc2c1 [compound 221, (-)-N-{2-[5-Chloro-3-Fluoro-6-(4-Fluorophenyl)-4-(2-Hydroxypropan-2-yl)Pyridin-2-yl]-3,3,3-Trifluoro-2-Hydroxypropyl}-8-(Cyclopropyloxy)-3-Methylquinoline-6-Carboxamide] | 65 | 9.3 |
| Cc1cnc2c(OC3CC3)cc(C(=O)NC[C@](O)(c3cc(C(C)(C)O)c(Cl)c(-c4ccc(F)cc4)n3)C3CC3)cc2c1 [compound 222, (-)-A-{2-[5-Chloro-6-(4-Fluorophenyl)-4-(2-Hydroxypropan-2-yl)Pyridin-2-yl]-2-Cyclopropyl-2-Hydroxyethyl}-8-(Cyclopropyloxy)-3-Methylquinoline-6-Carboxamide] | 27 | 1.5 |
| Cc1cnc2c(OC3CC3)cc(C(=O)NC[C@](O)(c3cc(C(C)(C)O)c(F)c(-c4ccc(F)cc4)n3)C3CC3)cc2c1 [compound 223, (-)-N-{2-Cyclopropyl-2-[5-Fluoro-6-(4-Fluorophenyl)-4-(2-Hydroxypropan-2-yl)Pyridin-2-yl]-2-Hydroxyethyl}-8-(Cyclopropyloxy)-3-Methylquinoline-6-Carboxamide] | 21 | 0.63 |
| Cc1cnc2c(OC3CC3)cc(C(=O)NC[C@](O)(c3cc(C(C)(C)O)c(F)c(-c4ccc(C(F)(F)F)cc4)n3)C3CC3)cc2c1 [compound 224] | 15 | 1.7 |
| Cc1cnc2c(OC3CC3)cc(C(=O)NC[C@](O)(c3cc(C(C)(C)O)c(F)c(-c4ccc(F)c(F)c4)n3)C3CC3)cc2c1 [compound 225, (-)-N-{2-Cyclopropyl-2-[6-(3,4-Difluorophenyl)-5-Fluoro-4-(2-Hydroxypropan-2-yl)Pyridin-2-yl]-2-Hydroxyethyl}-8-(Cyclopropyloxy)-3-Methylquinoline-6-Carboxamide] | 15 | 0.59 |
| COc1cc(C(=O)NC[C@](O)(c2cc(C(C)(C)O)c(Cl)c(-c3ccc(F)cc3)n2)C2CC2)cc2cc(C(F)F)cnc12 [compound 226, (-)-N-{2-[5-Chloro-6-(4-Fluorophenyl)-4-(2-Hydroxypropan-2-yl)Pyridin-2-yl]-2-Cyclopropyl-2-Hydroxyethyl}-3-(Difluoromethyl)-8-Methoxyquinoline-6-Carboxamide] | 14 | 2.4 |
| COc1cc(C(=O)NC[C@](O)(c2cc(C(C)(C)O)c(F)c(-c3ccc(F)cc3)n2)C2CC2)cc2cc(C(F)F)cnc12 [compound 227, N-{(-)Cyclopropyl[5-Fluoro-6-(4-Fluorophenyl)-4-(2-Hydroxypropanyl)Pyridinyl]Hydroxyethyl}-3-(Difluoromethyl)-8-Methoxyquinoline-6-Carboxamide] | 15 | 1.1 |
| COc1cc(C(=O)NC[C@](O)(c2nc(-c3ccc(F)cc3)c(F)c(C(C)(C)O)c2F)C(F)(F)F)cc2cc(C3CC3)cnc12 [compound 228, (-)Cyclopropyl-N-{2-[3,5-Difluoro-6-(4-Fluorophenyl)-4-(2-Hydroxypropan-2-yl)Pyridin-2-yl]-3,3,3-Trifluoro-2-Hydroxypropyl}-8-Methoxyquinoline-6-Carboxamide] | 10 | 13 |
| COc1cc(C(=O)NC[C@](C)(O)c2cc(C(C)(C)O)c(Cl)c(-c3ccc(F)cc3)n2)cc2cc(C)nnc12 [compound 229, (-)-N-{2-[5-Chloro-6-(4-Fluorophenyl)-4-(2-Hydroxypropan-2-yl)Pyridin-2-yl]-2-Hydroxypropyl}-8-Methoxy-3-Methylcinnoline-6-Carboxamide] | 44 | 0.81 |
| COc1cc(C(=O)NC[C@@](C)(O)c2cc(C(C)(C)O)c(Cl)c(-c3ccc(F)cc3)n2)cc2cc(C)nnc12 [compound 230] | 57 | 120 |
| COc1cc(C(=O)NC[C@](O)(c2cc(C(C)(C)O)c(Cl)c(-c3ccc(F)cc3)n2)C(F)(F)F)cc2cc(C)nnc12 [compound 232, (-)-N-{2-[5-Chloro-6-(4-Fluorophenyl)-4-(2-Hydroxypropan-2-yl)Pyridin-2-yl]-3,3,3-Trifluoro-2-Hydroxypropyl}-8-Methoxy-3-Methylcinnoline-6-Carboxamide] | 24 | 1.6 |
| COc1cc(C(=O)NC[C@@](O)(c2cc(C(C)(C)NS(C)(=O)=O)c(Cl)c(-c3ccc(F)cc3)n2)C(F)(F)F)cc2cc(C)nnc12 [compound 233, (+)-N-{2-[5-Chloro-6-(4-Fluorophenyl)-4-{2-[(Methanesulfonyl)Amino]Propan-2-yl}Pyridin-2-yl]-3,3,3-Trifluoro-2-Hydroxypropyl}-8-Methoxy-3-Methylcinnoline-6-Carboxamide] | 43 | 400 |
